# Results reported in PMC6109843, “Novel Quinazolinone Inhibitors of ALK2 Flip between Alternate Binding Modes: Structure–Activity Relationship, Structural Characterization, Kinase Profiling, and Cellular Proof of Concept” (Journal of Medicinal Chemistry, 2018).
# Experiments:
# Assay in all cases: DiscoverX scanEDGE kinase panel
# Type in all cases: binding
# Conditions in all cases: Cmpd Conc 1000 nM, read-out: % Ctrl
# CHEK1 = molecular target: T1, CHEK1 (Homo sapiens, UniProt O14757)
# T1 construct: purchased DiscoverX (DiscoveRx) KINOMEscan scanEDGE / KdELECT
# Excerpt: (§1) We hypothesized that inhibitors of the normal and flipped modes would display distinct selectivity profiles.
# (§2) 1. 16 and 21 kinome selectivity data
# (§3) (P – phosphorylated; nP – nonphosphorylated; % Ctrl values show the % of DNAEtagged
# (§4) kinase which was not displaced from a solid supported ligand by a test compound relative to
# (§5) untreated control, quantified by qPCR).
# (§6) Please note: ALKs 1, 2, 3, 4, 5 and 6 are listed by their gene symbols: ACVRL1 (ALK1), ACVR1
# (§7) (ALK2), BMPR1A (ALK3), ACVR1B (ALK4), TGFBR1 (ALK5) and BMPR1B (ALK6)
# (§8) Cmpd DiscoverX Gene Symbol Entrez Gene Symbol % Ctrl Cmpd Conc (nM)
# ERBB4 = molecular target: T2, ERBB4 (Homo sapiens, UniProt Q15303)
# T2 construct: purchased DiscoverX (DiscoveRx) KINOMEscan scanEDGE / KdELECT
# Excerpt: as §1, §2, §3, §4, §5, §6, §7, §8
# FGFR3 = molecular target: T3, FGFR3 (Homo sapiens, UniProt P22607)
# T3 construct: purchased DiscoverX (DiscoveRx) KINOMEscan scanEDGE / KdELECT
# Excerpt: as §1, §2, §3, §4, §5, §6, §7, §8
# p38Ealpha = molecular target: T4, p38Ealpha (Homo sapiens, UniProt Q16539)
# T4 construct: purchased DiscoverX (DiscoveRx) KINOMEscan scanEDGE / KdELECT
# T4 sequence (Q16539 whole entry): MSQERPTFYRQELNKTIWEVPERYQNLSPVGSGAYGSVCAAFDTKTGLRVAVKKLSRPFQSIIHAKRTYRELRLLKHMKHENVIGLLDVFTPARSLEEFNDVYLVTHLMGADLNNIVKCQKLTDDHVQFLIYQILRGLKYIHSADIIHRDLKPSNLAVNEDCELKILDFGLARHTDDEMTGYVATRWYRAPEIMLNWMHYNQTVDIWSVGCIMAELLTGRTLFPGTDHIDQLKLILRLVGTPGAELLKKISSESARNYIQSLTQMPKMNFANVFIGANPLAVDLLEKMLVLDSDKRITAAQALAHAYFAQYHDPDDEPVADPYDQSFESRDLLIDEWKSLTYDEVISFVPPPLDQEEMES
# Excerpt: as §1, §2, §3, §4, §5, §6, §7, §8
# JNK1 = molecular target: T5, JNK1 (Homo sapiens, UniProt P45983)
# T5 construct: purchased DiscoverX (DiscoveRx) KINOMEscan scanEDGE / KdELECT
# Excerpt: as §1, §2, §3, §4, §5, §6, §7, §8
# CSNK1D = molecular target: T6, CSNK1D (Homo sapiens, UniProt P48730)
# T6 construct: purchased DiscoverX (DiscoveRx) KINOMEscan scanEDGE / KdELECT
# Excerpt: as §1, §2, §3, §4, §5, §6, §7, §8
# PAK4 = molecular target: T7, PAK4 (Homo sapiens, UniProt O96013)
# T7 construct: purchased DiscoverX (DiscoveRx) KINOMEscan scanEDGE / KdELECT
# T7 sequence (O96013 whole entry): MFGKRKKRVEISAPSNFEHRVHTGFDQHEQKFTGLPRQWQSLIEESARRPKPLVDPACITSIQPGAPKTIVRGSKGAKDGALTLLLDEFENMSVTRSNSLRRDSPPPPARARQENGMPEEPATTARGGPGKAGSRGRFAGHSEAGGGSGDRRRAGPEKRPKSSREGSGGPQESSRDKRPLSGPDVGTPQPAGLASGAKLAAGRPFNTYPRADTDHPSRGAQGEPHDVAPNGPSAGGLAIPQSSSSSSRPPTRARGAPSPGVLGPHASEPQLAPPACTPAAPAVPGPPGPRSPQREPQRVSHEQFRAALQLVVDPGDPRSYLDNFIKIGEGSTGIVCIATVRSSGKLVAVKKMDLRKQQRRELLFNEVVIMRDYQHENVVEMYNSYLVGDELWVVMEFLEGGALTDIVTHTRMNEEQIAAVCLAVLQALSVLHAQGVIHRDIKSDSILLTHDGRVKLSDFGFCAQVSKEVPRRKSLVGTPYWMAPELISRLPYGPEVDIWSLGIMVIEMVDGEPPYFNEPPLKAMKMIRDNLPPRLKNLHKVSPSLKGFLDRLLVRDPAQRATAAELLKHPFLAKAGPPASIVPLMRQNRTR
# Excerpt: as §1, §2, §3, §4, §5, §6, §7, §8
# CDK11 = molecular target: T8, CDK11 (Homo sapiens, UniProt Q9BWU1)
# T8 construct: purchased DiscoverX (DiscoveRx) KINOMEscan scanEDGE / KdELECT
# Excerpt: as §1, §2, §3, §4, §5, §6, §7, §8
# YANK3 = molecular target: T9, YANK3 (Homo sapiens, UniProt Q86UX6)
# T9 construct: purchased DiscoverX (DiscoveRx) KINOMEscan scanEDGE / KdELECT
# Excerpt: as §1, §2, §3, §4, §5, §6, §7, §8
# AKT1 = molecular target: T10, AKT1 (Homo sapiens, UniProt P31749)
# T10 construct: purchased DiscoverX (DiscoveRx) KINOMEscan scanEDGE / KdELECT
# Excerpt: as §1, §2, §3, §4, §5, §6, §7, §8
# PAK1 = molecular target: T11, PAK1 (Homo sapiens, UniProt Q13153)
# T11 construct: purchased DiscoverX (DiscoveRx) KINOMEscan scanEDGE / KdELECT
# Excerpt: as §1, §2, §3, §4, §5, §6, §7, §8
# DCAMKL1 = molecular target: T12, DCAMKL1 (Homo sapiens, UniProt O15075)
# T12 construct: purchased DiscoverX (DiscoveRx) KINOMEscan scanEDGE / KdELECT
# Excerpt: as §1, §2, §3, §4, §5, §6, §7, §8
# TNK1 = molecular target: T13, TNK1 (Homo sapiens, UniProt Q13470)
# T13 construct: purchased DiscoverX (DiscoveRx) KINOMEscan scanEDGE / KdELECT
# Excerpt: as §1, §2, §3, §4, §5, §6, §7, §8
# BMPR1B (ALK6) = molecular target: T14, BMPR1B (ALK6) (Homo sapiens, UniProt O00238)
# T14 construct: purchased DiscoverX (DiscoveRx) KINOMEscan scanEDGE / KdELECT
# T14 sequence (O00238 14-502): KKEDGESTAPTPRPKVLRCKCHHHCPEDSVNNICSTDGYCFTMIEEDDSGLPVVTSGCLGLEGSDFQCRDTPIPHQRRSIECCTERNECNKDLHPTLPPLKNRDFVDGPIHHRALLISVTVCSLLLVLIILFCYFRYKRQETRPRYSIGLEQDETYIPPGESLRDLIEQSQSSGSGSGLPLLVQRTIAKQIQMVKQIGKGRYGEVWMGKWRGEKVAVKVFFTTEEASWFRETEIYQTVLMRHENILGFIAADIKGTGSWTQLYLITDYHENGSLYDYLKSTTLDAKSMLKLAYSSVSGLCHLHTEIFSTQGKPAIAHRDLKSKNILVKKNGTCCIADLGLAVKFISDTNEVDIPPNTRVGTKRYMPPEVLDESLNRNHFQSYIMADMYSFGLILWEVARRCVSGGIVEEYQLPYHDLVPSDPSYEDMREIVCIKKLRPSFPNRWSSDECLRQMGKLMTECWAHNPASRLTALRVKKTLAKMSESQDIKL
# Excerpt: as §1, §2, §3, §4, §5, §6, §7, §8
# CDK7 = molecular target: T15, CDK7 (Homo sapiens, UniProt P50613)
# T15 construct: purchased DiscoverX (DiscoveRx) KINOMEscan scanEDGE / KdELECT
# Excerpt: as §1, §2, §3, §4, §5, §6, §7, §8
# CDK9 = molecular target: T16, CDK9 (Homo sapiens, UniProt P50750)
# T16 construct: purchased DiscoverX (DiscoveRx) KINOMEscan scanEDGE / KdELECT
# Excerpt: as §1, §2, §3, §4, §5, §6, §7, §8
# BMPR2 = molecular target: T17, BMPR2 (Homo sapiens, UniProt Q13873)
# T17 construct: purchased DiscoverX (DiscoveRx) KINOMEscan scanEDGE / KdELECT
# Excerpt: as §1, §2, §3, §4, §5, §6, §7, §8
# KIT = molecular target: T18, KIT (Homo sapiens, UniProt P10721)
# T18 construct: purchased DiscoverX
# T18 sequence (P10721 26-976): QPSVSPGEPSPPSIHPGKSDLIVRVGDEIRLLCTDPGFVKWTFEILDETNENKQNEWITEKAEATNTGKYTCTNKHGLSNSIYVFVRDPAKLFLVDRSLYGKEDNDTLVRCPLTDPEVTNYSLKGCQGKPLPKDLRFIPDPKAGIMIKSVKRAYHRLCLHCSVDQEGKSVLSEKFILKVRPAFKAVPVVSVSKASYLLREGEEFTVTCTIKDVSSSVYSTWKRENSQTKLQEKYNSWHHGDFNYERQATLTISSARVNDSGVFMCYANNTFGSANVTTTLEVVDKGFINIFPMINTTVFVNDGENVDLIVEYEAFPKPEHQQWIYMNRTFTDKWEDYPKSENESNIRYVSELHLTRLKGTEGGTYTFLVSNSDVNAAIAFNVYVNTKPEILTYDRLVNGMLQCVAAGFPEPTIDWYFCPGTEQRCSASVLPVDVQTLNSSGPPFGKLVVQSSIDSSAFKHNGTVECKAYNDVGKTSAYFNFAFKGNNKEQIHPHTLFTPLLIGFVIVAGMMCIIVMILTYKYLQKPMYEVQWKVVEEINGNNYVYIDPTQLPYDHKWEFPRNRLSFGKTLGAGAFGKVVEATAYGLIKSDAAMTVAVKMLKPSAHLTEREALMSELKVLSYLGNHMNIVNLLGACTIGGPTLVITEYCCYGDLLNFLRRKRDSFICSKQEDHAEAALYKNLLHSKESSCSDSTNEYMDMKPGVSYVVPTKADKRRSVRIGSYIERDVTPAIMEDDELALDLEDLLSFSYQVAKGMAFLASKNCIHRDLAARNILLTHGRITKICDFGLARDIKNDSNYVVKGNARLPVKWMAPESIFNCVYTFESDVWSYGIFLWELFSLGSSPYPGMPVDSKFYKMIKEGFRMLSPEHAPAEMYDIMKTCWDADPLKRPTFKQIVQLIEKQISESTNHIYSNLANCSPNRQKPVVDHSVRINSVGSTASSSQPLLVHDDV
# Excerpt: as §1, §2, §3, §4, §5, §6, §7, §8
# FGFR2 = molecular target: T19, FGFR2 (Homo sapiens, UniProt P21802)
# T19 construct: purchased DiscoverX (DiscoveRx) KINOMEscan scanEDGE / KdELECT
# Excerpt: as §1, §2, §3, §4, §5, §6, §7, §8
# AXL = molecular target: T20, AXL (Homo sapiens, UniProt P30530)
# T20 construct: purchased DiscoverX (DiscoveRx) KINOMEscan scanEDGE / KdELECT
# Excerpt: as §1, §2, §3, §4, §5, §6, §7, §8
# ZAP70 = molecular target: T21, ZAP70 (Homo sapiens, UniProt P43403)
# T21 construct: purchased DiscoverX (DiscoveRx) KINOMEscan scanEDGE / KdELECT
# T21 sequence (P43403 whole entry): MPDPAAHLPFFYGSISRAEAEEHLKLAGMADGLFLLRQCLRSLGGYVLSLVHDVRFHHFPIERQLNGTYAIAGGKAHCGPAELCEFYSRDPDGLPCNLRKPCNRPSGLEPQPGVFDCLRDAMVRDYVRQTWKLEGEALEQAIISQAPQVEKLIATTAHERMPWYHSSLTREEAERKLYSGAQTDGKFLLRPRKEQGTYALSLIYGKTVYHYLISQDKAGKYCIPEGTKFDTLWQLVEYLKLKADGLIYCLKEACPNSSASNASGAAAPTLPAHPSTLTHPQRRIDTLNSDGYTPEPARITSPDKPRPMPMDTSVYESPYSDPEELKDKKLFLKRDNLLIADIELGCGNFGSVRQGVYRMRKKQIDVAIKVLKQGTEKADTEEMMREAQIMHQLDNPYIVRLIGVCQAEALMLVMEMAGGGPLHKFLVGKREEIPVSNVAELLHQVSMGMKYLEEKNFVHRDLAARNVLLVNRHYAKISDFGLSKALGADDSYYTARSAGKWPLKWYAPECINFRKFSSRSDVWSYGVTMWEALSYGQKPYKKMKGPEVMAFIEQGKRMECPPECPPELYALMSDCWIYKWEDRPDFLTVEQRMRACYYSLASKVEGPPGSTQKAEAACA
# Excerpt: as §1, §2, §3, §4, §5, §6, §7, §8
# PLK3 = molecular target: T22, PLK3 (Homo sapiens, UniProt Q9H4B4)
# T22 construct: purchased DiscoverX (DiscoveRx) KINOMEscan scanEDGE / KdELECT
# Excerpt: as §1, §2, §3, §4, §5, §6, §7, §8
# FLT3 = molecular target: T23, FLT3 (Homo sapiens, UniProt P36888)
# T23 construct: purchased DiscoverX (DiscoveRx) KINOMEscan scanEDGE / KdELECT
# Excerpt: as §1, §2, §3, §4, §5, §6, §7, §8
# ERBB2 = molecular target: T24, ERBB2 (Homo sapiens, UniProt P04626)
# T24 construct: purchased DiscoverX (DiscoveRx) KINOMEscan scanEDGE / KdELECT
# Excerpt: as §1, §2, §3, §4, §5, §6, §7, §8
# NEK7 = molecular target: T25, NEK7 (Homo sapiens, UniProt Q8TDX7)
# T25 construct: purchased DiscoverX (DiscoveRx) KINOMEscan scanEDGE / KdELECT
# T25 sequence (Q8TDX7 whole entry): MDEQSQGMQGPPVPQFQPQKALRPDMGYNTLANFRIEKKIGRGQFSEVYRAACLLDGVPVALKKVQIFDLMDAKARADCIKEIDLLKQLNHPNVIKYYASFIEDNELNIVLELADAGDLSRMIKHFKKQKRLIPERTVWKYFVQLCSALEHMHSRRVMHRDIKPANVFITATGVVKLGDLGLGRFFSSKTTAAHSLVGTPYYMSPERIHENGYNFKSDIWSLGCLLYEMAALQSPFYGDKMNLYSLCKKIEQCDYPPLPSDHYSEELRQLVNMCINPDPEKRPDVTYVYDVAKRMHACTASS
# Excerpt: as §1, §2, §3, §4, §5, §6, §7, §8
# ABL2 = molecular target: T26, ABL2 (Homo sapiens, UniProt P42684)
# T26 construct: purchased DiscoverX (DiscoveRx) KINOMEscan scanEDGE / KdELECT
# Excerpt: as §1, §2, §3, §4, §5, §6, §7, §8
# MINK = molecular target: T27, MINK (Homo sapiens, UniProt Q8N4C8)
# T27 construct: purchased DiscoverX (DiscoveRx) KINOMEscan scanEDGE / KdELECT
# Excerpt: as §1, §2, §3, §4, §5, §6, §7, §8
# ULK2 = molecular target: T28, ULK2 (Homo sapiens, UniProt Q8IYT8)
# T28 construct: purchased DiscoverX (DiscoveRx) KINOMEscan scanEDGE / KdELECT
# T28 sequence (Q8IYT8 whole entry): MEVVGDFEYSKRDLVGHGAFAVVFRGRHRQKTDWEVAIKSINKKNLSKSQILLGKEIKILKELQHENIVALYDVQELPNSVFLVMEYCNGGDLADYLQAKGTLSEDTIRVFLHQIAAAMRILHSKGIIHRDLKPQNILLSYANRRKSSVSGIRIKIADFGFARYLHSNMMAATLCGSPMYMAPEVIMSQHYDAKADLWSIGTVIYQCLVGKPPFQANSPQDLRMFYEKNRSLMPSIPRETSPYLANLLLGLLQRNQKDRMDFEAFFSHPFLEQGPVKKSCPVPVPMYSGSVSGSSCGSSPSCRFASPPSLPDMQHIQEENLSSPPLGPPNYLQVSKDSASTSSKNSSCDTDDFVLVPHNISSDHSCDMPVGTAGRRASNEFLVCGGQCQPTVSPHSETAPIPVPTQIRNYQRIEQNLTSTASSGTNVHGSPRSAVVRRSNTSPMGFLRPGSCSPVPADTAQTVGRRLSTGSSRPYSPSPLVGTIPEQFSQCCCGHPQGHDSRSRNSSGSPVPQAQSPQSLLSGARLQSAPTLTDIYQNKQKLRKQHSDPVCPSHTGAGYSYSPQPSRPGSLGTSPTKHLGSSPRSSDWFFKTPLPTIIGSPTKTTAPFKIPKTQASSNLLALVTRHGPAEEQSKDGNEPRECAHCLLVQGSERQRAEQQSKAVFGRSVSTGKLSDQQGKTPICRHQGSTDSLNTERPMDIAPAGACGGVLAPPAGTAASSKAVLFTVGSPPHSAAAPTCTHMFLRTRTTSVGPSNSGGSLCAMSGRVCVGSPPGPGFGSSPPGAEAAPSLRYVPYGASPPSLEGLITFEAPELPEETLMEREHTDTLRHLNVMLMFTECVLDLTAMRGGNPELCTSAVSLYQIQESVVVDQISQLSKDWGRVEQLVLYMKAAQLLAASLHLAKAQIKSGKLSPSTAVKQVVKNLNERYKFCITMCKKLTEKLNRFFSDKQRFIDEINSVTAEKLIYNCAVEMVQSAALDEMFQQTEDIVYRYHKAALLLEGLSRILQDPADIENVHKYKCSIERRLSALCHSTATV
# Excerpt: as §1, §2, §3, §4, §5, §6, §7, §8
# BTK = molecular target: T29, BTK (Homo sapiens, UniProt Q06187)
# T29 construct: purchased DiscoverX (DiscoveRx) KINOMEscan scanEDGE / KdELECT
# Excerpt: as §1, §2, §3, §4, §5, §6, §7, §8
# EGFR(L858R) = molecular target: T30, EGFR(L858R) (Homo sapiens, UniProt P00533, L858R)
# T30 construct: purchased DiscoverX (DiscoveRx) KINOMEscan scanEDGE / KdELECT
# Excerpt: as §1, §2, §3, §4, §5, §6, §7, §8
# ALK = molecular target: T31, ALK (Homo sapiens, UniProt Q9UM73)
# T31 construct: purchased DiscoverX (DiscoveRx) KINOMEscan scanEDGE / KdELECT
# Excerpt: as §1, §2, §3, §4, §5, §6, §7, §8
# KIT(D816H) = molecular target: T32, KIT(D816H) (Homo sapiens, UniProt P10721, D816H)
# T32 construct: purchased DiscoverX (DiscoveRx) KINOMEscan scanEDGE / KdELECT
# T32 sequence (P10721 26-976 D816H): as the sequence (P10721 26-976) above, with D791H counted along it
# Excerpt: as §1, §2, §3, §4, §5, §6, §7, §8
# MKNK2 = molecular target: T33, MKNK2 (Homo sapiens, UniProt Q9HBH9)
# T33 construct: purchased DiscoverX (DiscoveRx) KINOMEscan scanEDGE / KdELECT
# Excerpt: as §1, §2, §3, §4, §5, §6, §7, §8
# EGFR = molecular target: T34, EGFR (Homo sapiens, UniProt P00533)
# T34 construct: purchased DiscoverX (DiscoveRx) KINOMEscan scanEDGE / KdELECT
# Excerpt: as §1, §2, §3, §4, §5, §6, §7, §8
# PRKCE = molecular target: T35, PRKCE (Homo sapiens, UniProt Q02156)
# T35 construct: purchased DiscoverX (DiscoveRx) KINOMEscan scanEDGE / KdELECT
# Excerpt: as §1, §2, §3, §4, §5, §6, §7, §8
# PDGFRA = molecular target: T36, PDGFRA (Homo sapiens, UniProt P16234)
# T36 construct: purchased DiscoverX (DiscoveRx) KINOMEscan scanEDGE / KdELECT
# Excerpt: as §1, §2, §3, §4, §5, §6, §7, §8
# BRAF(V600E) = molecular target: T37, BRAF(V600E) (Homo sapiens, UniProt P15056, V600E)
# T37 construct: purchased DiscoverX (DiscoveRx) KINOMEscan scanEDGE / KdELECT
# Excerpt: as §1, §2, §3, §4, §5, §6, §7, §8
# TRKA = molecular target: T38, TRKA (Homo sapiens, UniProt P04629)
# T38 construct: purchased DiscoverX (DiscoveRx) KINOMEscan scanEDGE / KdELECT
# Excerpt: as §1, §2, §3, §4, §5, §6, §7, §8
# SRPK3 = molecular target: T39, SRPK3 (Homo sapiens, UniProt Q9UPE1)
# T39 construct: purchased DiscoverX (DiscoveRx) KINOMEscan scanEDGE / KdELECT
# T39 sequence (Q9UPE1 whole entry): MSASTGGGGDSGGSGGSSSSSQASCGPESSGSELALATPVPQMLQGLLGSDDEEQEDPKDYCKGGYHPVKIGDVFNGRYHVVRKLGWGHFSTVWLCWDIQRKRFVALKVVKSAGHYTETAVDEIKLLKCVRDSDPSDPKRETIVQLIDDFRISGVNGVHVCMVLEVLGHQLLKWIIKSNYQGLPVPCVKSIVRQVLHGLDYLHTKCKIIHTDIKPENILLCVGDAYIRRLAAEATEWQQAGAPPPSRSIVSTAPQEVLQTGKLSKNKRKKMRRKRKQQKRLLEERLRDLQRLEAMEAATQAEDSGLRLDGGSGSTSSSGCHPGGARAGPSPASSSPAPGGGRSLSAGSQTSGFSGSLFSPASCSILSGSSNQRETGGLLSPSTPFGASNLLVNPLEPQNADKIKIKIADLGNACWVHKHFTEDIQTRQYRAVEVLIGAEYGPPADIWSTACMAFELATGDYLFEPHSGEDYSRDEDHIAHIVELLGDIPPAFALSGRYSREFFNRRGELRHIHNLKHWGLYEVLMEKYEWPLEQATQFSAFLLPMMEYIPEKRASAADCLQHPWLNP
# Excerpt: as §1, §2, §3, §4, §5, §6, §7, §8
# PKACEalpha = molecular target: T40, PKACEalpha (Homo sapiens, UniProt P17612)
# T40 construct: purchased DiscoverX (DiscoveRx) KINOMEscan scanEDGE / KdELECT
# Excerpt: as §1, §2, §3, §4, §5, §6, §7, §8
structure (smiles),measurement,setting,value
"O=c1c2cc(-c3ccnc4ccccc34)ccc2ncn1-c1ccc(N2CCOCC2)cc1 [compound 16, 3-(4-Morpholinophenyl)-6-(quinolin-4-yl)quinazolin-4(3H)-one]",remaining binding at 1 µM,CHEK1,100%
same,remaining binding at 1 µM,ERBB4,100%
same,remaining binding at 1 µM,FGFR3,100%
same,remaining binding at 1 µM,p38Ealpha,100%
same,remaining binding at 1 µM,JNK1,100%
same,remaining binding at 1 µM,CSNK1D,68%
same,remaining binding at 1 µM,PAK4,97%
same,remaining binding at 1 µM,CDK11,68%
same,remaining binding at 1 µM,YANK3,86%
same,remaining binding at 1 µM,AKT1,94%
same,remaining binding at 1 µM,PAK1,71%
same,remaining binding at 1 µM,DCAMKL1,92%
same,remaining binding at 1 µM,TNK1,78%
same,remaining binding at 1 µM,BMPR1B (ALK6),4.1%
same,remaining binding at 1 µM,CDK7,97%
same,remaining binding at 1 µM,CDK9,94%
same,remaining binding at 1 µM,BMPR2,64%
same,remaining binding at 1 µM,KIT,1.8%
same,remaining binding at 1 µM,FGFR2,100%
same,remaining binding at 1 µM,AXL,96%
same,remaining binding at 1 µM,ZAP70,100%
same,remaining binding at 1 µM,PLK3,90%
same,remaining binding at 1 µM,FLT3,83%
same,remaining binding at 1 µM,ERBB2,100%
same,remaining binding at 1 µM,NEK7,97%
same,remaining binding at 1 µM,ABL2,97%
same,remaining binding at 1 µM,MINK,51%
same,remaining binding at 1 µM,ULK2,93%
same,remaining binding at 1 µM,BTK,99%
same,remaining binding at 1 µM,EGFR(L858R),63%
same,remaining binding at 1 µM,ALK,99%
same,remaining binding at 1 µM,KIT(D816H),100%
same,remaining binding at 1 µM,MKNK2,100%
same,remaining binding at 1 µM,EGFR,71%
same,remaining binding at 1 µM,PRKCE,92%
same,remaining binding at 1 µM,PDGFRA,8.7%
same,remaining binding at 1 µM,BRAF(V600E),58%
same,remaining binding at 1 µM,TRKA,76%
same,remaining binding at 1 µM,SRPK3,79%
same,remaining binding at 1 µM,PKACEalpha,89%
